Laboratory results published in patent US6613536B1, “Synthetic peptides and pharmaceutical compositions comprising them for the treatment of systemic lupus erythematosus” (Yeda Research and Development Co. Ltd., priority 1995, dated 2003).

Legend:
SJL/J and BALB/c mice [1] = test: Anti-nuclear extract (NE) antibodies in sera of immunized mice (ELISA); assay type: in vivo, mouse
Procedure: Five groups of mice were immunized according to Example 2, and their sera were tested for the presence of anti-NE antibodies.
ELISA was utilized to test the presence of the anti-NE antibodies in the sera of the mice, as follows: Plates (Nunc) were coated with 5 μg/ml of HeLa cells NE for 90 min. Thereafter plates were washed and blocked, and ELISA was continued the next day, as described in Example 2 for anti-DNA antibodies.

SJL/J and BALB/c mice [2] = test: Anti-RNP, Sm, Ro and La antibodies in sera of immunized mice (ELISA); assay type: in vivo, mouse; settings: for anti-RNP antibodies in sera / anti-Sm, anti-La and anti-Ro antibodies in sera: BALB/c mice; for anti-RNP, anti-Sm and anti-La antibodies in sera: sera diluted 1:10, compared to normal mice or p278
Procedure: The same sera of the mice as described in Examples 2 and 3 were used for detection of anti-RNP, Sm, Ro and La antibodies.
Plates were purchased as pre-coated plates and were blocked with 1% ovalbumin in PBS for 2 hr. Thereafter the plates were washed as in Example 2 above, incubated in duplicates with 1:10 diluted sera, washed again and ELISA was carried out as described in Example 2 above.

BALB/c and SJL mice = test: Clinical manifestations of SLE in immunized mice (WBC, proteinuria, kidney analysis); assay type: in vivo, mouse; settings: for W.B.C., white blood cell counts / proteinuria: five months after immunization; for number of white blood cells (in words): in comparison to non-immunized mice or p278-immunized mice
Procedure: The erythrocyte sedimentation rate was determined by diluting the heparinized blood in PBS at a ratio of 1:1. The diluted blood was then passed to a microsampling pipette and the sedimentation was measured 6 hours later. White blood cell counts were determined after the hemolysis of heparinized blood. Proteinuria was measured in a semi-quantitative manner, using a Combistix kit (Ames, Stoke Poges, Slough, U.K.). Immunohistology was performed by incubation of fixed frozen cryostat sections with FITC-labeled antibodies to mouse Ig. Staining was visualized via use of a fluorescent microscope.
BALBtc and SJL mice were immunized with mAb 5G12 or with peptides Ia and IIIa, and five months later were checked by two criteria for manifestation of SLE: white blood cell count (WBC) and proteinuria.
(i) White blood cell count (WBC): The mice were bled, their blood was diluted 1:10 with 1% (vol/vol) acetic acid in order to eliminate the red blood cells, and white blood cells were counted under a normal light microscope.
Proteinuria: The urine of the mice was tested using combisticks (Combistix Kit, Ames) for the presence of protein.

[3] = target: T1, MHC class II products on splenic antigen-presenting cells (APC) (Mus musculus, UniProt P01921+P04228); test: Inhibition of peptide binding to APC by anti-Ia mAb; parameters: concentration or dose not given beside the values; settings: BALB/c, H-2 d
T1 construct: Splenic adherent cells (10^6/100 μl/tube) isolated from BALB/c, SJL, C3H.SW or C57BL/6 mice; from tissue; host or cells: mouse spleen adherent cells (BALB/c, SJL, C3H.SW, C57BL/6)
T1 sequence (P04228 24-256): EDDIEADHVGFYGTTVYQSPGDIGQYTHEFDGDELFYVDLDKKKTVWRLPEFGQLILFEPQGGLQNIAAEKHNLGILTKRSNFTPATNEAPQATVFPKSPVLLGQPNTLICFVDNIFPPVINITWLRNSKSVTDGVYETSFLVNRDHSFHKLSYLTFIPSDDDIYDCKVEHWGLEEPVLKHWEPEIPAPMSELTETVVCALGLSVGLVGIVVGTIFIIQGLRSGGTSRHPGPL
T1 sequence (P01921 28-265): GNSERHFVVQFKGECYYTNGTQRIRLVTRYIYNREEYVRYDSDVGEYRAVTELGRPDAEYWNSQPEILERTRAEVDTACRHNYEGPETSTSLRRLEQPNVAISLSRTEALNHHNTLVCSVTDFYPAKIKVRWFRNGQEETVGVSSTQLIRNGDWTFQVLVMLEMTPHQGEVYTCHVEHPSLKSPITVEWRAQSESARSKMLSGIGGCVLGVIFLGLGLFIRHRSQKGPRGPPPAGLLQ
Procedure: (§1) Spleen cells suspended in RPMI 1640 medium containing 10% FCS were incubated in Petri dishes for 60 min at 37° C. Thereafter, non-adherent cells were removed, the plates were washed, and the adherent cells were collected from the plates using a rubber policeman (Costar, Mass., USA). These cells (1×10^6/100 μl/tube) were incubated with the biotinylated peptides in PBS containing 0.1% BSA (high purity grade, Amresco, Ohio, USA) for 16 hr at 37° C., followed by incubation with phycoerythrin (PE)-streptavidin (Jackson ImmunoResearch) for 30 min at 4° C. Thereafter the samples were incubated with biotinylated anti-streptavidin (1:60, Vector Laboratories, Burlingame, Calif.) and for an additional period with PE-streptavidin, all for 30 min at 4° C. The cells were washed twice with cold PBS/BSA solution after each incubation. Thereafter, cells were analyzed by flow cytometry using the FACSort cytometer and CELLQuest software (Beckton-Dickinson, Mountain View, Calif.). […]
(§2) Binding of the CDR-based peptides Ia and IIIa to APC was determined as described in Materials and Methods herein and the results are shown in Table 2. […] The results are shown in Table 3: Inhibition of binding was specific and ranged from 60% to 100%.

[4] = target: T2, MHC class II products on splenic antigen-presenting cells (APC) (Mus musculus, UniProt P14434+P14483); test: as above; parameters: concentration or dose not given beside the values
T2 construct: Splenic adherent cells (10^6/100 μl/tube) isolated from BALB/c, SJL, C3H.SW or C57BL/6 mice; from tissue; host or cells: mouse spleen adherent cells (BALB/c, SJL, C3H.SW, C57BL/6)
T2 sequence (P14434 24-256): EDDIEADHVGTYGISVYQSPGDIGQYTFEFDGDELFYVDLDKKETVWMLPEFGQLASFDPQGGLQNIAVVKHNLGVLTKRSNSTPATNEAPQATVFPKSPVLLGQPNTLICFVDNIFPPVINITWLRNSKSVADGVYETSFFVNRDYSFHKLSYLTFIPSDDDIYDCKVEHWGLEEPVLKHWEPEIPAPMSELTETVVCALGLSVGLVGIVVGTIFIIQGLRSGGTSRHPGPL
T2 sequence (P14483 28-265): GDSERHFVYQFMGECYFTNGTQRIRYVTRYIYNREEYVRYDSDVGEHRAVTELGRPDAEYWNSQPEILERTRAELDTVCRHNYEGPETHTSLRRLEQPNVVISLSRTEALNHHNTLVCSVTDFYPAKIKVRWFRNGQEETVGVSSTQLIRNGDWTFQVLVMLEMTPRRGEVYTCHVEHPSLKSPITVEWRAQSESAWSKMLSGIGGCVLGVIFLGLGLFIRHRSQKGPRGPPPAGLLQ
Procedure: as §1, §2

[5] = BALB/c mice immunized as in Example 2
[6] = SJL/J mice immunized as in Example 2
[7] = C3H.SW, H-2 b, mAb anti I-A^b (34-5-3)
[8] = C3H.SW, H-2 b, mAb anti I-A^d (MKD6)
[9] = C57BL/6, H-2 b, mAb anti I-A^b (34-5-3)
[10] = C57BL/6, H-2 b, mAb anti I-A^d (MKD6)

Substance	anti-NE antibodies in sera (SJL/J and BALB/c mice [1]; [5])	anti-NE antibodies in sera (SJL/J and BALB/c mice [1]; [6])	anti-RNP antibodies in sera (SJL/J and BALB/c mice [2]; sera diluted 1:10)	anti-Sm, anti-La and anti-Ro antibodies in sera (SJL/J and BALB/c mice [2]; sera diluted 1:10)	anti-RNP, anti-Sm and anti-La antibodies in sera (SJL/J and BALB/c mice [2]; SJL/J mice)	protein level in urine (in words) (BALB/c and SJL mice; BALB/c mice)	W.B.C., white blood cell counts (BALB/c and SJL mice; BALB/c mice) [per mm^3]	proteinuria (BALB/c and SJL mice; BALB/c mice) [g/L]	protein level in urine (in words) (BALB/c and SJL mice; SJL mice)	proteinuria (BALB/c and SJL mice; SJL mice) [g/L]	number of white blood cells (in words) (BALB/c and SJL mice)	% inhibition of binding to APC ([3]; mAb anti I-A^b (34-5-3)) [%]	% inhibition of binding to APC ([3]; mAb anti I-A^d (MKD6)) [%]	% inhibition of binding to APC [4, 7] [%]	% inhibition of binding to APC [4, 8] [%]	% inhibition of binding to APC [4, 9] [%]	% inhibition of binding to APC [4, 10] [%]	anti-Ro autoantibodies in sera (SJL/J and BALB/c mice [2]; SJL/J mice, sera diluted 1:10)	W.B.C., white blood cell counts (BALB/c and SJL mice; SJL mice) [per mm^3]
TGYYMQWVKQSPEKSLEWIG [peptide Ia]	high levels of anti-NE antibodies	lower levels of anti-NE antibodies	very high levels of anti-RNP antibodies	produced detectable antibodies	High levels of anti-RNP, anti-Sm and anti-La antibodies	High levels of protein	3375 ± 350	0.88 ± 0.076	smaller increase in protein level	0.375 ± 0.04	lower number of white blood cells	0	76.7	60	0	82	0		
YYYCARFLWEPYAMDYWGQGS (YYCARFLWEPYAMDYWGQGS) [peptide IIIa, based on the CDR3 region of the VH chain of mAb 5G12]	very low level of anti-NE antibodies	high level of anti-NE antibodies	very high levels of anti-RNP antibodies	very low levels of anti-Sm, anti-La and anti-Ro antibodies	High levels of anti-RNP, anti-Sm and anti-La antibodies		3325 ± 400	0.30 ± 0.01		0.9 ± 0.075	lower number of white blood cells	0	100	84.4	25	59.3	0	extremely high levels of anti-Ro autoantibodies	3300 ± 1343
